Type in all cases: functional, cell-based
Conditions in all cases: Huh-7, 24 h

Assay [1] relates to Huh-7. Kind of assay: Antiproliferative activity against human Huh-7 cells in presence of 1 uM liproxstatin-1 measured after 24 hrs by Cell Titer Glo assay. In general terms: ATP-based viability assays read luminescence as a measure of living cells.
In assay [2] the test system is Huh-7. Kind of assay: Antiproliferative activity against human Huh-7 cells in presence of 1 uM ferrostatin-1 measured after 24 hrs by Cell Titer Glo assay.
Assay [3] concerns Huh-7. Description: Antiproliferative activity against human Huh-7 cells after 24 hrs by Cell Titer Glo assay.

For orientation: EC50 means the concentration at which the effect is half-maximal. Regarding `C#CC(=O)N(c1cccc(Cl)c1)C1(C(=O)NCc2ccccc2)CCOCC1`, the EC50 was > 10 µM in assay [1], > 10 µM in assay [2] and ≤ 0.1 µM in assay [3]. `C#CC(=O)N(c1cccc(C#N)c1)C(C(=O)NCc1ccccc1)c1ccc(N)cc1` (centres undefined) showed a half-maximal effective concentration (EC50) in assay [3] of 0.1 µM. Same read-out and setting: as for `C#CC(=O)N(c1cccc(Cl)c1)C1(C(=O)NCc2ccccc2)CCC(F)(F)CC1`, the figure is ≤ 0.1 µM. The same measure, in the same setting: as for `C#CC(=O)N(c1ccc2[nH]ncc2c1)C1(C(=O)NCc2ccccc2)CCOCC1`, the figure is 0.1 µM. Still for that read-out and setting: then `C#CC(=O)N(c1cccc(S(C)(=O)=O)c1)C(C(=O)NCc1ccccc1)c1ccccc1` (centres undefined), with 0.1 µM.

Regarding `C#CC(=O)N(c1cccc(OC)c1)C(C(=O)NCc1ccccc1)c1ccc(N)cc1` (centres undefined), the EC50 in assay [3] is ≤ 0.1 µM. The same measure, in the same setting: as for `C#CC(=O)N(c1cccc(NS(C)(=O)=O)c1)C(C(=O)NCc1ccccc1)c1cccc(N)c1` (centres undefined), the figure is 2 µM; as for `C#CC(=O)N(c1ccc(S(N)(=O)=O)cc1)C(C(=O)NCc1ccccc1)c1ccc(N)cc1` (centres undefined), > 10 µM.

`C#CC(=O)N(c1cccc(Cl)c1)C1(C(=O)NCC(=O)Nc2ccccc2)CCOCC1` came in with an EC50 in assay [3] of 0.1 µM.

In assay [3], `C#CC(=O)N(c1cccc(OC)c1)C(C(=O)NCc1ccccc1)c1cccc(N)c1` (centres undefined) yielded an EC50 of 0.1 µM. For `O=C(CCl)N(c1ccc2c(c1)OCO2)C1(C(=O)NCc2ccccc2)CCOCC1`, the response in assay [3] was half-maximal at 2 µM (EC50). On the same count and under the same terms, as for `C#CC(=O)N(c1ccc2c(cnn2C)c1)C1(C(=O)NCc2ccccc2)CCOCC1`, the figure is ≤ 0.1 µM. On the same count and under the same terms, then `Cn1ncc2cc(N(C(=O)CCl)C3(C(=O)NCCc4ccccc4)CCOCC3)ccc21`, with 0.5 µM; and `C#CC(=O)N(c1cccc(Cl)c1)C1(C(=O)NCC(=O)N2CCCC(CO)C2)CCOCC1` (centres undefined), with 2 µM; and `C#CC(=O)N(c1ccc2scnc2c1)C1(C(=O)NCc2ccccc2)CCOCC1`, with 0.1 µM.

Consider `CC(C)N(C(=O)CCl)C(C(=O)NCCc1ccccc1)c1cccs1` (centres undefined), for which, in assay [3], the EC50 is > 10 µM. Still for that read-out and setting: as for `C#CC(=O)N(c1ccc2c(cnn2C)c1)C1(C(=O)NCc2ccccc2)CCCOC1` (centres undefined), the figure is ≤ 0.1 µM.

In the case of `C#CC(=O)N(c1cccc(Cl)c1)C(C(=O)NCc1ccccc1)c1ccccc1F` (centres undefined), the EC50 in assay [3] was ≤ 0.1 µM.

Consider `C#CC(=O)N(c1ccc2c(cnn2C)c1)C1(C(=O)NCc2ccccc2)CCC(=O)CC1`, for which the EC50 in assay [3] is ≤ 0.1 µM. As for `Cn1ncc2cc(N(C(=O)CO)C3(C(=O)NCc4ccccc4)CCOCC3)ccc21`, in assay [3], the EC50 is > 10 µM. Same read-out and setting: then `C#CC(=O)N(c1ccc(OC)cc1)C(C(=O)NCc1ccccc1)c1ccc(N)cc1` (centres undefined), with ≤ 0.1 µM; and `COc1ccc(N(C(=O)CCl)C(C(=O)NC(C)(C)C)c2cccs2)cc1Cl` (centres undefined), with 0.5 µM; and `O=C(NCCc1ccccc1)C(c1ccc([N+](=O)[O-])cc1)N(Cc1ccccc1)C(=O)CCl` (centres undefined), with 2 µM. On the same count and under the same terms, then `C#CC(=O)N(c1cccc(C(=O)OC)c1)C(C(=O)NCc1ccccc1)c1ccc(N)cc1` (centres undefined), with ≤ 0.1 µM.

In the case of `COc1ccc(N(C(=O)CCl)C2(C(=O)NCc3ccccc3)CCOCC2)cc1Cl`, the midpoint of the response in assay [3], the EC50, lay at 0.1 µM.

In assay [3], `C#CC(=O)N(c1cccc(Cl)c1)C(C(=O)NCc1ccccc1)c1cccc(OCC(=O)OC)c1` (centres undefined) showed an EC50 of 0.1 µM. Regarding `C=CC(=O)N(Cc1cccc(O)c1)C1(C(=O)NCc2ccccc2)CCOCC1`, the EC50 in assay [3] is > 10 µM. In turn, `COc1ccc(N(C(=O)CCl)C(C)C(=O)NCCc2ccccc2)cc1Cl` (centres undefined) had an EC50 in assay [3] of 0.5 µM.

For `CC#CC(=O)N(c1ccc2c(cnn2C)c1)C1(C(=O)NCc2ccccc2)CCOCC1`, the EC50 in assay [3] was > 10 µM.

`COc1ccc(N(C(=O)CCl)C(C(=O)NCCc2ccccc2)c2ccc(N)cc2)cc1Cl` (centres undefined): the EC50 in assay [3] was 0.1 µM. Same read-out and setting: then `C#CC(=O)N(c1ccc2c(c1)C(=O)OC2)C(C(=O)NCc1ccccc1)c1ccccc1` (centres undefined), with ≤ 0.1 µM; and `CC(=O)N(c1ccc2c(cnn2C)c1)C1(C(=O)NCc2ccccc2)CCCOC1` (centres undefined), with > 10 µM. On the same count and under the same terms, as for `O=C(NCCc1ccccc1)C(c1ccc([N+](=O)[O-])cc1)N(Cc1cccs1)C(=O)CCl` (centres undefined), the figure is 2 µM; as for `C#CC(=O)N(c1ccc(Cl)cc1)C(C(=O)NCc1ccccc1)c1ccc(N)cc1` (centres undefined), ≤ 0.1 µM.

As for `CC(Cl)C(=O)N(c1ccc2c(cnn2C)c1)C1(C(=O)NCc2ccccc2)CCOCC1` (centres undefined), the EC50 in assay [3] is > 10 µM. The same measure, in the same setting: then `C#CC(=O)N(c1cccc(Cl)c1)C(C(=O)NCC1CC1)c1ccccc1` (centres undefined), with ≤ 0.1 µM; and `C#CC(=O)N(c1ccccc1N1CCOCC1)C1(C(=O)NCc2ccccc2)CCOCC1`, with ≤ 0.1 µM; and `C#CC(=O)N(Cc1ccc(C(=O)OC)cc1)C(C)C(=O)NCc1ccccc1` (centres undefined), with 0.1 µM. On the same count and under the same terms, as for `C#CC(=O)N(c1cccc(O)c1)C(C(=O)NCc1ccccc1)c1cccc(N)c1` (centres undefined), the figure is ≤ 0.1 µM. The same measure, in the same setting: as for `COc1ccc(N(C(=O)CCl)C(C(=O)NCc2ccccc2)c2cccs2)cc1Cl` (centres undefined), the figure is 0.5 µM; as for `C#CC(=O)N(c1cccc(Cl)c1)C1(C(=O)NCC(=O)NCc2ccccc2O)CCOCC1`, 0.1 µM; as for `Cn1ncc2cc(N(C(=O)C(F)F)C3(C(=O)NCc4ccccc4)CCOCC3)ccc21`, > 10 µM.

Take `C#CC(=O)N(c1ccc(OC)c(Cl)c1)C(C(=O)NCc1ccccc1)c1cccc(N)c1` (centres undefined): in assay [3], the EC50 is ≤ 0.1 µM. On the same count and under the same terms, then `C#CC(=O)N(c1cccc(CO)c1)C(C(=O)NCc1ccccc1)c1ccc(N)cc1` (centres undefined), with 2 µM; and `C#CC(=O)N(c1cccc(Cl)c1)C1(C(=O)NCc2ccccc2)CCCOC1` (centres undefined), with ≤ 0.1 µM; and `C#CC(=O)N(CCc1ccccc1)C1(C(=O)NCc2ccccc2)CCCC(C(=O)O)C1` (centres undefined), with > 10 µM. Same read-out and setting: then `C#CC(=O)N(c1ccc(OC)cc1)C(C(=O)NC(C)(C)C)c1cccc(N)c1` (centres undefined), with 0.5 µM.
